Laboratory results from ChEMBL document CHEMBL1201861, “Genomics of Drug Sensitity in Cancer screening data, Wellcome Trust Sanger Institute”.
Structures can show the parent of a compound that is named as a salt.

Key:
Assay in all cases: cells
COR-L88 = type: functional, cell-based, Homo sapiens; conditions: Homo sapiens, COR-L88;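 further: growth inhibition of COR-L88 cells, read out with a cell viability assay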
Description: SANGER: Inhibition of human COR-L88 cell growth in a cell viability assay.

CW-2 = type: functional, cell-based, Homo sapiens; conditions: Homo sapiens, CW-2;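 further: growth inhibition of CW-2 cells, read out by a cell viability assay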
Description: SANGER: Inhibition of human CW-2 cell growth in a cell viability assay.

DJM-1 = type: functional, cell-based, Homo sapiens; conditions: Homo sapiens, DJM-1;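 further: growth inhibition of human DJM-1 cells, read out by a cell viability assay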
Description: SANGER: Inhibition of human DJM-1 cell growth in a cell viability assay.

EKVX = type: functional, cell-based, Homo sapiens; conditions: Homo sapiens, EKVX;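 further: growth inhibition of human EKVX cells, read out with a cell viability assay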
Description: SANGER: Inhibition of human EKVX cell growth in a cell viability assay.

ES5 = type: functional, cell-based, Homo sapiens; conditions: Homo sapiens, ES5;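 further: growth inhibition of human ES5 cells, read out by a cell viability assay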
Description: SANGER: Inhibition of human ES5 cell growth in a cell viability assay.

ES8 = type: functional, cell-based, Homo sapiens; conditions: Homo sapiens, ES8;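 further: growth inhibition of human ES8 cells, read out with a cell viability assay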
Description: SANGER: Inhibition of human ES8 cell growth in a cell viability assay.

EW-16 = type: functional, cell-based, Homo sapiens; conditions: Homo sapiens, EW-16;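 further: growth inhibition of human EW-16 cells, read out as cell viability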
Description: SANGER: Inhibition of human EW-16 cell growth in a cell viability assay.

GI-1 = type: functional, cell-based, Homo sapiens; conditions: Homo sapiens, GI-1;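 further: growth inhibition of human GI-1 cells, measured with a cell viability readout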
Description: SANGER: Inhibition of human GI-1 cell growth in a cell viability assay.

HCC1187 = type: functional, cell-based, Homo sapiens; conditions: Homo sapiens, HCC1187;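 further: growth inhibition of HCC1187 cells, read out with a cell viability assay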
Description: SANGER: Inhibition of human HCC1187 cell growth in a cell viability assay.

HCE-4 = type: functional, cell-based, Homo sapiens; conditions: Homo sapiens, HCE-4;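 further: cell viability assay measuring inhibition of growth in the human HCE-4 cell line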
Description: SANGER: Inhibition of human HCE-4 cell growth in a cell viability assay.

HD-MY-Z = type: functional, cell-based, Homo sapiens; conditions: Homo sapiens, HD-MY-Z;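 further: growth inhibition of HD-MY-Z cells, read out with a cell viability assay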
Description: SANGER: Inhibition of human HD-MY-Z cell growth in a cell viability assay.

HL-60 = type: functional, cell-based, Homo sapiens; conditions: Homo sapiens, HL-60;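 further: growth inhibition of human HL-60 cells, read out with a cell viability assay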
Description: SANGER: Inhibition of human HL-60 cell growth in a cell viability assay.

IST-MES1 = type: functional, cell-based, Homo sapiens; conditions: Homo sapiens, IST-MES1;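 further: growth inhibition of IST-MES1 cells, measured with a cell viability assay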
Description: SANGER: Inhibition of human IST-MES1 cell growth in a cell viability assay.

K562 = type: functional, cell-based, Homo sapiens; conditions: Homo sapiens, K562
Description: SANGER: Inhibition of human K-562 cell growth in a cell viability assay.

KE-37 = type: functional, cell-based, Homo sapiens; conditions: Homo sapiens, KE-37;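 further: growth inhibition of KE-37 cells, read out with a cell viability assay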
Description: SANGER: Inhibition of human KE-37 cell growth in a cell viability assay.

KG-1 = type: functional, cell-based, Homo sapiens; conditions: Homo sapiens, KG-1;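 further: growth inhibition of KG-1 cells, read out by a cell viability assay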
Description: SANGER: Inhibition of human KG-1 cell growth in a cell viability assay.

KINGS-1 = type: functional, cell-based, Homo sapiens; conditions: Homo sapiens, KINGS-1;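 further: cell viability assay measuring suppression of KINGS-1 cell growth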
Description: SANGER: Inhibition of human KINGS-1 cell growth in a cell viability assay.

KM-H2 = type: functional, cell-based, Homo sapiens; conditions: Homo sapiens, KM-H2;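 further: growth inhibition of KM-H2 cells, read out by a cell viability assay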
Description: SANGER: Inhibition of human KM-H2 cell growth in a cell viability assay.

KS-1 = type: functional, cell-based, Homo sapiens; conditions: Homo sapiens, KS-1;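 further: growth inhibition of KS-1 cells, read out with a cell viability assay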
Description: SANGER: Inhibition of human KS-1 cell growth in a cell viability assay.

KURAMOCHI = type: functional, cell-based, Homo sapiens; conditions: Homo sapiens, KURAMOCHI;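 further: growth inhibition of KURAMOCHI cells, read out with a cell viability assay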
Description: SANGER: Inhibition of human KURAMOCHI cell growth in a cell viability assay.

LB2241-RCC = type: functional, cell-based, Homo sapiens; conditions: Homo sapiens, LB2241-RCC;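 further: cell viability assay measuring how strongly the cultured human renal carcinoma line is prevented from growing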
Description: SANGER: Inhibition of human LB2241-RCC cell growth in a cell viability assay.

LB373-MEL-D = type: functional, cell-based, Homo sapiens; conditions: Homo sapiens, LB373-MEL-D;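 further: growth inhibition of the cell line, read out in a cell viability assay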
Description: SANGER: Inhibition of human LB373-MEL-D cell growth in a cell viability assay.

LU-134-A = type: functional, cell-based, Homo sapiens; conditions: Homo sapiens, LU-134-A
Description: SANGER: Inhibition of human LU-134-A cell growth in a cell viability assay.

LU-139 = type: functional, cell-based, Homo sapiens; conditions: Homo sapiens, LU-139
Description: SANGER: Inhibition of human LU-139 cell growth in a cell viability assay.

MC116 = type: functional, cell-based, Homo sapiens; conditions: Homo sapiens, MC116;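 further: growth inhibition of MC116 cells, read out with a cell viability assay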
Description: SANGER: Inhibition of human MC116 cell growth in a cell viability assay.

MEG-01 = type: functional, cell-based, Homo sapiens; conditions: Homo sapiens, MEG-01;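 further: growth inhibition of MEG-01 cells, read out by a cell viability assay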
Description: SANGER: Inhibition of human MEG-01 cell growth in a cell viability assay.

MLMA = type: functional, cell-based, Homo sapiens; conditions: Homo sapiens, MLMA;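 further: growth inhibition of MLMA cells (human), determined through a cell viability readout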
Description: SANGER: Inhibition of human MLMA cell growth in a cell viability assay.

MMAC-SF = type: functional, cell-based, Homo sapiens; conditions: Homo sapiens, MMAC-SF;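 further: growth inhibition of human MMAC-SF cells, read out with a cell viability assay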
Description: SANGER: Inhibition of human MMAC-SF cell growth in a cell viability assay.

MOLT-4 = type: functional, cell-based, Homo sapiens; conditions: Homo sapiens, MOLT-4;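 further: growth inhibition of MOLT-4 cells, determined with a cell viability readout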
Description: SANGER: Inhibition of human MOLT-4 cell growth in a cell viability assay.

Mo = type: functional, cell-based, Homo sapiens; conditions: Homo sapiens, Mo
Description: SANGER: Inhibition of human Mo-T cell growth in a cell viability assay.

NCI-H1155 = type: functional, cell-based, Homo sapiens; conditions: Homo sapiens, NCI-H1155;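 further: cell growth inhibition measured by a viability assay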
Description: SANGER: Inhibition of human NCI-H1155 cell growth in a cell viability assay.

NCI-H1770 = type: functional, cell-based, Homo sapiens; conditions: Homo sapiens, NCI-H1770;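 further: growth inhibition of NCI-H1770 cells determined with a viability readout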
Description: SANGER: Inhibition of human NCI-H1770 cell growth in a cell viability assay.

NCI-H1838 = type: functional, cell-based, Homo sapiens; conditions: Homo sapiens, NCI-H1838;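 further: growth inhibition of NCI-H1838 cells, determined with a cell viability readout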
Description: SANGER: Inhibition of human NCI-H1838 cell growth in a cell viability assay.

NCI-H209 = type: functional, cell-based, Homo sapiens; conditions: Homo sapiens, NCI-H209;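 further: growth inhibition of human NCI-H209 cells, measured by a cell viability assay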
Description: SANGER: Inhibition of human NCI-H209 cell growth in a cell viability assay.

NCI-H23 = type: functional, cell-based, Homo sapiens; conditions: Homo sapiens, NCI-H23;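 further: cell viability assay measuring growth inhibition of NCI-H23 cells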
Description: SANGER: Inhibition of human NCI-H23 cell growth in a cell viability assay.

NOS-1 = type: functional, cell-based, Homo sapiens; conditions: Homo sapiens, NOS-1;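 further: growth inhibition of the human NOS-1 cell line, read out with a cell viability assay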
Description: SANGER: Inhibition of human NOS-1 cell growth in a cell viability assay.

NTERA-2-cl-D1 = type: functional, cell-based, Homo sapiens; conditions: Homo sapiens, NTERA-2-cl-D1;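 further: inhibition of cell growth, measured with a cell viability assay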
Description: SANGER: Inhibition of human NTERA-S-cl-D1 cell growth in a cell viability assay.

OS-RC-2 = type: functional, cell-based, Homo sapiens; conditions: Homo sapiens, OS-RC-2;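 further: growth inhibition of human OS-RC-2 cells, measured by a cell viability assay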
Description: SANGER: Inhibition of human OS-RC-2 cell growth in a cell viability assay.

PSN1 = type: functional, cell-based, Homo sapiens; conditions: Homo sapiens, PSN1;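 further: suppression of growth of human PSN1 cells, read out by a cell viability assay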
Description: SANGER: Inhibition of human PSN1 cell growth in a cell viability assay.

RCC10RGB = type: functional, cell-based, Homo sapiens; conditions: Homo sapiens, RCC10RGB;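 further: growth inhibition of human RCC10RGB cells, read out by a cell viability assay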
Description: SANGER: Inhibition of human RCC10RGB cell growth in a cell viability assay.

RKO = type: functional, cell-based, Homo sapiens; conditions: Homo sapiens, RKO;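 further: growth inhibition of human RKO cells, read out with a cell viability assay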
Description: SANGER: Inhibition of human RKO cell growth in a cell viability assay.

SF-539 = type: functional, cell-based, Homo sapiens; conditions: Homo sapiens, SF-539;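 further: Read-out is a cell viability assay, with IC50 reflecting inhibition of cell growth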
Description: SANGER: Inhibition of human SF539 cell growth in a cell viability assay.

SHP77 = type: functional, cell-based, Homo sapiens, SHP-77; conditions: Homo sapiens, SHP77;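 further: growth inhibition of human SHP-77 cells measured by a cell viability assay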
Description: SANGER: Inhibition of human SHP-77 cell growth in a cell viability assay.

SW 954 = type: functional, cell-based, Homo sapiens; conditions: Homo sapiens, SW 954;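 further: growth inhibition of SW954 human cancer cells, read out as cell viability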
Description: SANGER: Inhibition of human SW954 cell growth in a cell viability assay.

A388 = type: functional, cell-based, Homo sapiens; conditions: Homo sapiens, A388;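 further: growth inhibition of human A388 cells, read out with a cell viability assay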
Description: SANGER: Inhibition of human A388 cell growth in a cell viability assay.

A4-Fuk = type: functional, cell-based, Homo sapiens; conditions: Homo sapiens, A4-Fuk;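 further: growth inhibition of A4-Fuk cells, read out by a cell viability assay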
Description: SANGER: Inhibition of human A4-Fuk cell growth in a cell viability assay.

TK-10 = type: functional, cell-based, Homo sapiens; conditions: Homo sapiens, TK-10;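 further: growth inhibition of TK-10 cells, read out in a cell viability assay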
Description: SANGER: Inhibition of human TK10 cell growth in a cell viability assay.

no-10 = type: functional, cell-based, Homo sapiens; conditions: Homo sapiens;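 further: growth inhibition of no-10 cells, read out with a cell viability assay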
Description: SANGER: Inhibition of human no-10 cell growth in a cell viability assay.

COLO-320-HSR = type: functional, cell-based, Homo sapiens; conditions: Homo sapiens, COLO-320-HSR;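 further: growth inhibition of COLO-320-HSR cells, determined with a cell viability assay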
Description: SANGER: Inhibition of human COLO-320-HSR cell growth in a cell viability assay.

With `COC1=CC(c2cc3ccccc3[nH]2)=N/C1=C\c1[nH]c(C)cc1C` [OBATOCLAX MESYLATE] the IC50 (COR-L88) was over 16000 nM, the IC50 (CW-2) was over 16 µM and the IC50 (DJM-1) was 175 nM. The IC50 (EKVX) was 1660 nM, the IC50 (ES5) was 605 nM and the IC50 (ES8) was 116 nM. It also gave an IC50 (EW-16) of 39.1 nM, an IC50 (GI-1) of 275 nM and an IC50 (HCC1187) of 1710 nM. It also gave an IC50 (HCE-4) of 203 nM, an IC50 (HD-MY-Z) of 14.6 µM and an IC50 (HL-60) of 1260 nM. For the same molecule, the IC50 (IST-MES1) was 286 nM, the IC50 (K562) was 1670 nM and the IC50 (KE-37) was under 62.5 nM. The IC50 (KG-1) was 334 nM, the IC50 (KINGS-1) was 826 nM and the IC50 (KM-H2) was 701 nM. For the same molecule, the IC50 (KS-1) was 305 nM, the IC50 (KURAMOCHI) was 85.1 nM and the IC50 (LB2241-RCC) was 761 nM. The IC50 (LB373-MEL-D) was 42.3 nM, the IC50 (LU-134-A) was over 16000 nM and the IC50 (LU-139) was 6.08 µM. It also gave an IC50 (MC116) of 113 nM, an IC50 (MEG-01) of 454 nM and an IC50 (MLMA) of 75.3 nM. For the same molecule, the IC50 (MMAC-SF) was 76.7 nM, the IC50 (MOLT-4) was 477 nM and the IC50 (Mo) was 1900 nM. It also gave an IC50 (NCI-H1155) of 6.96 µM, an IC50 (NCI-H1770) of 47 nM and an IC50 (NCI-H1838) of over 16 µM. For the same molecule, the IC50 (NCI-H209) was 3.68 µM, the IC50 (NCI-H23) was 10.6 µM and the IC50 (NOS-1) was 64.1 nM. For the same molecule, the IC50 (NTERA-2-cl-D1) was 104 nM, the IC50 (OS-RC-2) was 431 nM and the IC50 (PSN1) was under 62.5 nM. It also gave an IC50 (RCC10RGB) of 1140 nM, an IC50 (RKO) of under 62.5 nM and an IC50 (SF-539) of 116 nM. It also gave an IC50 (SHP77) of 2010 nM, an IC50 (SW 954) of 403 nM and an IC50 (A388) of 57 nM. For the same molecule, the IC50 (A4-Fuk) was 89.5 nM, the IC50 (TK-10) was 177 nM and the IC50 (no-10) was 1460 nM. For the same molecule, the IC50 (COLO-320-HSR) was 52.9 nM.

`N#Cc1c(O)c2c(-c3ccc(-c4ccccc4O)cc3)csc2[nH]c1=O` showed an IC50 (COR-L88) of 725 nM, an IC50 (CW-2) of over 1.02 µM and an IC50 (DJM-1) of over 1020 nM. For the same molecule, the IC50 (EKVX) was over 1020 nM, the IC50 (ES5) was over 1020 nM and the IC50 (ES8) was over 1020 nM. The IC50 (EW-16) was over 1020 nM, the IC50 (GI-1) was over 1020 nM and the IC50 (HCC1187) was over 1020 nM. It also gave an IC50 (HCE-4) of over 1020 nM, an IC50 (HD-MY-Z) of 0.148 µM and an IC50 (HL-60) of 97.4 nM. It also gave an IC50 (IST-MES1) of over 1020 nM, an IC50 (K562) of over 1020 nM and an IC50 (KE-37) of 129 nM. It also gave an IC50 (KG-1) of 409 nM, an IC50 (KINGS-1) of over 1020 nM and an IC50 (KM-H2) of 424 nM. The IC50 (KS-1) was over 1020 nM, the IC50 (KURAMOCHI) was over 1020 nM and the IC50 (LB2241-RCC) was over 1020 nM. It also gave an IC50 (LB373-MEL-D) of over 1020 nM, an IC50 (LU-134-A) of 231 nM and an IC50 (LU-139) of over 1.02 µM. It also gave an IC50 (MC116) of 100 nM, an IC50 (MEG-01) of 269 nM and an IC50 (MLMA) of 234 nM. It also gave an IC50 (MMAC-SF) of over 1020 nM, an IC50 (MOLT-4) of 114 nM and an IC50 (Mo) of over 1020 nM. The IC50 (NCI-H1155) was over 1.02 µM, the IC50 (NCI-H1770) was 109 nM and the IC50 (NCI-H1838) was over 1.02 µM. It also gave an IC50 (NCI-H209) of over 1.02 µM, an IC50 (NCI-H23) of over 1.02 µM and an IC50 (NOS-1) of over 1020 nM. It also gave an IC50 (NTERA-2-cl-D1) of over 1020 nM, an IC50 (OS-RC-2) of over 1020 nM and an IC50 (PSN1) of over 1020 nM. It also gave an IC50 (RCC10RGB) of over 1020 nM, an IC50 (RKO) of over 1020 nM and an IC50 (SF-539) of over 1020 nM. The IC50 (SHP77) was 383 nM, the IC50 (SW 954) was over 1020 nM and the IC50 (A388) was over 1020 nM. It also gave an IC50 (A4-Fuk) of over 1020 nM, an IC50 (TK-10) of over 1020 nM and an IC50 (no-10) of over 1020 nM. It also gave an IC50 (COLO-320-HSR) of over 1020 nM.
